Biological target: T1, GABA A α5 (Homo sapiens, UniProt P18507+P31644)
T1 construct: expressed in transfected cells; host or cells: HEK293 cells, transiently transfected; membranes prepared from cell pellets
Experiment: [3H]flumazenil competition binding, human GABA A α5β3γ2 receptors in HEK293 cell membranes
Conditions: human receptor α5β3γ2 transiently transfected in HEK293; 0.5 nM [3H]flumazenil; 1 hour at 4° C.; means of two determinations; read-out: hKi GABA A α5
Outline: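 Competition with [3H]flumazenil for binding to membranes of HEK293 cells transiently expressing human α5β3γ2, in Krebs-tris buffer pH 7.5. Incubated to equilibrium 1 h at 4 °C, filtered and scintillation-counted; Ki values are means of two determinations.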

SMILES | Ki
Cc1onc(-c2ccc(F)cc2)c1CNc1cc(C(=O)NC2CCOCC2)[nH]n1 [Example 156, 5-{[3-(4-Fluoro-phenyl)-5-methyl-isoxazol-4-ylmethyl]-amino}-2H-pyrazole-3-carboxylic acid (tetrahydro-pyran-4-yl)-amide] | 3.9 nM
Cc1onc(-c2ccc(F)cc2)c1CNc1cc(C(=O)NCC(F)(F)F)n(C)n1 [Example 146, 5-{[3-(4-Fluoro-phenyl)-5-methyl-isoxazol-4-ylmethyl]-amino}-2-methyl-2H-pyrazole-3-carboxylic acid (2,2,2-trifluoro-ethyl)-amide] | 15.2 nM
CC(C)NC(=O)c1cc(OCc2c(-c3ccc(Cl)cc3)noc2CO)nn1C [Example 100, 5-[3-(4-Chloro-phenyl)-5-hydroxymethyl-isoxazol-4-ylmethoxy]-2-methyl-2H-pyrazole-3-carboxylic acid isopropylamide] | 5.8 nM
Cc1onc(-c2ccc(F)cc2)c1COc1cc(C(=O)N[C@@H]2CCCC2O)n(C)n1 (single isomer, unassigned; (+)) [Example 74] | 2 nM
Cc1onc(-c2ccc(F)cc2)c1/C=C/c1cc(C(=O)NCC(C)(C)O)n(C)n1 [Example 124, 5-{(E)-2-[3-(4-Fluoro-phenyl)-5-methyl-isoxazol-4-yl]vinyl}-2-methyl-2H-pyrazole-3-carboxylic acid (2-hydroxy-2-methyl-propyl)-amide] | 2 nM
CC(=O)NCCNC(=O)c1cc(OCc2c(-c3ccc(F)cc3)noc2C)nn1C [Example 64, 5-[3-(4-Fluoro-phenyl)-5-methyl-isoxazol-4-ylmethoxy]-2-methyl-2H-pyrazole-3-carboxylic acid (2-acetylamino-ethyl)-amide] | 16.1 nM
Cc1onc(-c2ccc(F)cc2)c1COc1cc(C(=O)NC(C)C)n(C)n1 [Example 52, 5-[3-(4-Fluoro-phenyl)-5-methyl-isoxazol-4-ylmethoxy]-2-methyl-2H-pyrazole-3-carboxylic acid isopropylamide] | 7.4 nM
CCCCc1noc(C)c1COc1cc(C(=O)N[C@@H](C)CO)[nH]n1 [Example 27, 5-(3-Butyl-5-methyl-isoxazol-4-ylmethoxy)-2H-pyrazole-3-carboxylic acid ((S)-2-hydroxy-1-methyl-ethyl)-amide] | 7.8 nM
